# According to ChEMBL document CHEMBL5331047 (Eur J Med Chem, 2022):
# Experiments:
# [1] = target: Neuraminidase (Influenza A virus (strain A/USSR/90/1977 H1N1), UniProt P03469, H274Y)
# [2] = Induction of drug resistance in influenza A virus H1N1 expressing neuraminidase S246N mutant assessed as reduction in susceptibility relative to control; type: functional; design: scale not given: the % may be the effect or the level left
# [3] = system: Neuraminidase (Influenza A virus (strain A/USSR/90/1977 H1N1)), P03469 [H274Y]; assay: Induction of drug resistance in influenza A virus H1N1 expressing neuraminidase H274Y mutant assessed as reduction in susceptibility relative to control; type: functional; design: scale not given: the % may be the effect or the level left
# [4] = Induction of drug resistance in influenza A virus H1N1 expressing neuraminidase I222R mutant assessed as reduction in susceptibility relative to control; type: functional; design: scale not given: the % may be the effect or the level left
# [5] = Induction of drug resistance in influenza A virus H3N1 expressing neuraminidase N294S mutant assessed as reduction in susceptibility relative to control; type: functional; design: scale not given: the % may be the effect or the level left
SMILES,IC50 [1],Activity [2],Activity [3],Activity [4],Activity [5]
CC(=O)N[C@@H]1[C@@H](N)CC(C(=O)O)=C[C@H]1OC1CCSC1 (stereo not given in full),68 nM,,,,
CCOC(=O)C1=C[C@@H](OC(CC)CC)[C@H](NC(C)=O)[C@@H](N)C1 [OSELTAMIVIR],,<3.5%,< 3.5%,<3.5%,<3.5%
